Source: patent US20160339022A1, “TREATMENT OF NEUROBLASTOMA WITH HISTONE DEACETYLASE INHIBITORS” (Acetylon Pharmaceuticals Inc., priority 2015, published 2016)

How the values were obtained:
Type in all cases: cell-based
SK-N-BE(2) cells = assay: Differentiation Index Score based on a gene signature; conditions: 48 hours, FIG. 1
Protocol: A subset of the fingerprint genes are assessed for each treatment group, and a score is assigned to each gene based on the degree of expression and weighted with a (+) or (−) sign based on if it increased or decreased as predicted. The scores are summed to generate a single Index value for each treatment group, set to ATRA signal and compared. It is observed that HDAC1/2i induce gene expression consistent with differentiation and that in combination with ATRA, the differentiation effect is enhanced.
The combination of the listed compounds with retinoic acid results in a greater differentation index score, illustrating enhanced differentiation in the combination setting.

p21 = assay: Expression of cell cycle regulator p21; conditions: single agent, FIG. 6A
neuroblastoma cells = assay: Long term growth assay (15, 20, 25 days, Crystal Violet)
Protocol: Cells were cultured for 15, 20 or 25 days with the indicated treatments. Cells were imaged on an inverted microscope at days 15 and 20. On day 25, the cells were stained with Crystal Violet dye and imaged by cell phone camera Importantly, the combination of ATRA and Compound B suppressed the growth of ATRA-resistant colonies.
Cells were cultured for 15, 20 or 25 days with the indicated treatments. Cells were imaged on an inverted microscope at days 15 and 20. On day 25, the cells were stained with Crystal Violet dye and imaged.
Cells were cultured for 15, 20 or 25 days with the indicated treatments. Cells were imaged on an inverted microscope at days 15 and 20. On day 25, the cells were stained with Crystal Violet dye and imaged. It was observed that the combination activity is mediated by HDAC1/2i.
Neuroblastoma cells were treated with Compound B or the HDAC3-selective inhibitor Compound C in a long term growth assay.

[1] = test system: retinoic acid receptor (RAR); assay: Retinoic acid receptor ChIP-seq; conditions: 3 μM Compound B, 48 hours
Excerpt: Retinoic acid receptor active binding sites defined in any individual treatment group by ChIP-seq at 48 hrs after treatment were stacked (y-axis) and aligned to the center of the binding peak (x-axis) (FIG. 13). […] Many of the genes found near region 1 binding sites are involved in regulation of retinoid signaling and are transcription factors that drive differentiation (Table 10).
Regions 1-7 of FIG. 13 are defined relative to DMSO: 1, [Combo] Increased; 2, [ATRA] Increased; 3, [ATRA] [Combo] Increased; 4, [Combo] [ATRA] [Compound B] Increased; 5, [Combo] [ATRA] Decreased; 6, [Compound B] Decreased; and 7, [Compound B] [Combo] [ATRA] Decreased.
Neuroblastoma cell line SK-N-BE(2) cells were treated with 3 μM Compound B, 1 μM ATRA, or a combination of both at 37° C. over 48 hours and compared to the solvent (DMSO) control. Antibodies to pan-retinoic acid receptor were used to pull down DNA associated with the receptor binding and sequenced. Lists of binding regions were mapped to the chromosome and “associated” with a given gene if the binding region was located within 10,000 bp up- or down-stream of the gene in question. Binding regions were represented as a heatmap where the sites were stacked on the y-axis across treatments, the “0” mark on the x-axis is the center of the binding peak and the intensity of signal indicated by color. The bracketed regions are areas of statistical significance relative to the DMSO control as indicated on the plot.
Table 12 lists the genes returned when the following conditions are met: 1) combo peak height >4 fold relative to the DMSO control group, and 2) combo expression >4 fold relative to the DMSO control group.

[2] = SK-N-BE(2) cells, 1 μM ATRA or combination, fold relative to the DMSO control group

Nc1ccc(-c2cccs2)cc1NC(=O)c1ccc2c(c1)cc(C1CC1)n2CCN1CCOCC1 [Compound B, N-(2-amino-5-(thiophen-2-yl)phenyl)-2-cyclopropyl-1-(2-morpholinoethyl)-1H-indole-5-carboxamide]
Differentiation Index Score (gene signature) (SK-N-BE(2) cells): induces gene expression changes consistent with differentiation
expression of master cell cycle regulator p21 (p21): increased expression
neuroblastoma cell growth in long term growth assay (neuroblastoma cells; 1 μM of exposure, single agent, FIG. 11): reduced neuroblastoma cell growth
growth of ATRA-resistant colonies (neuroblastoma cells; combination with ATRA, 15-25 days): strongly suppressed
RAR Binding (Peak Height), ACSL3 [1, 2]: 2.00
RAR Binding (Peak Height), ATP7A [1, 2]: 2.20
RAR Binding (Peak Height), CDKN1A [1, 2]: 0.50
RAR Binding (Peak Height), CRABP2 [1, 2]: 0.69
RAR Binding (Peak Height), CTSH [1, 2]: 0.83
RAR Binding (Peak Height), CYP26A1 [1, 2]: 2.33
RAR Binding (Peak Height), CYP26B1 [1, 2]: 1.50
RAR Binding (Peak Height), DHRS3 [1, 2]: 1.00
RAR Binding (Peak Height), DUSP6 [1, 2]: 3.00
RAR Binding (Peak Height), ETS1 [1, 2]: 3.35
RAR Binding (Peak Height), HSPA5 [1, 2]: 2.00
RAR Binding (Peak Height), IER3 [1, 2]: 2.67
RAR Binding (Peak Height), NFKBIZ [1, 2]: 3.33
RAR Binding (Peak Height), PCDH18 [1, 2]: 4.00
RAR Binding (Peak Height), PTGER2 [1, 2]: 0.75
RAR Binding (Peak Height), RARB [1, 2]: 1.10
RAR Binding (Peak Height), RET [1, 2]: 1.71
RAR binding to chromatin ([1]; SK-N-BE(2), 1 μM ATRA, vs DMSO): can reduce RAR binding
